For assay [1], the system named is Human uterus cancer MES-SA cells. The assay can be described thus: Inhibitory effect on growth of multidrug-resistant cell line, parent line (in vitro). The class given is cell-based. The settings on record: 48 hours culture, WST-8. The text has this:
(§1) Each compound of the present invention was studied for its effect on the growth of a multidrug-resistant cell line. A drug efflux pump called P-glycoprotein is well known to be involved in the drug resistance mechanism of the multidrug-resistant line MES-SA/Dx5 used in this experiment. Accordingly, in this experiment, paclitaxel and vincristine, which are proven substrates of P-glycoprotein, were used as control drugs. Human uterus cancer MES-SA cells and their multidrug-resistant line MES-SA/Dx5 cells were suspended in a medium and inoculated at a cell density of 2000 cells/50 μL/well to a 96-well plate. After overnight culture, each test sample diluted with a medium was added thereto at a concentration of 50 μL/well, and the cells were further cultured for 48 hours. After the completion of culture, WST-8 was added thereto at a concentration of 10 μL/well, and the cells were cultured at 37° C. for approximately 1 hour under 5% CO2 conditions, followed by measurement of absorbance at a wavelength of 450 nm. […] The resistance rate was calculated according to the following expression:
(§2) Resistance rate=IC50 value (MES-SA/Dx5)/IC50 value (MES-SA)
(In general: Tetrazolium assays rely on reduction of a dye to a coloured formazan, in cell work by metabolically active cells.)

The test system of assay [2] is Human non-small cell lung cancer NCI-H460 cells. The assay can be described thus: Inhibitory effect on growth of PTX-resistant tumor cell line, parent line (in vitro). The class given is cell-based. The note with it: 96 hours culture, WST-8. How it is done: Each compound of the present invention was studied for its effect on the growth of a tumor cell line having a PTX resistance mechanism different from that attributed to the high expression of P-glycoprotein. Human non-small cell lung cancer NCI-H460 cells were exposed to 1 nM paclitaxel (PTX) and 10 μM verapamil at the same time. Only the PTX concentration was increased to 2, 3, 4, 5, and 7 nM in order over approximately 6 months to establish PTX-resistant H460/PV2-7 cells (PV2-7). […] As for the PTX resistance mechanism different from that attributed to the high expression of P-glycoprotein, an isotype called Class III β-tubulin (TUBB3), which is one isotype of […], has been reported to be highly expressed in PTX-resistant established lines in vitro or in clinical samples from patients having resistance to PTX therapy.
The PV2-7 cells and the parent line NCI-H460 cells were suspended in a medium and inoculated at a cell density of 1000 cells/50 μL/well to a 96-well plate. After overnight culture, each compound diluted 2-fold (final concentration) was added thereto at a concentration of 50 μL/well, and the cells were cultured for 96 hours. After the completion of culture, WST-8 (Seikagaku Corp.) was added thereto at a concentration of 10 μL/well, and the cells were cultured at 37° C. for approximately 1 hour under 5% CO2 conditions, followed by measurement of absorbance at 450 nm.

The next assay has as its system PV2-7 xenograft tumor. The assay can be described thus: Antitumor effect on growth of PV2-7 xenograft tumor (in vivo). More on the design: species or system BALB/c nude mice. The settings on record: tail vein, once a week, three times in total (Days 1, 8, and 15); FIG. 5.
The test system of assay [3] is multidrug-resistant line MES-SA/Dx5 cells. The assay can be described thus: Inhibitory effect on growth of multidrug-resistant cell line (in vitro). The class given is cell-based, human. The settings on record: for IC50: Homo sapiens, MES-SA/Dx5 cells, 48 hours culture, WST-8; for Resistance rate: IC50 value (MES-SA/Dx5)/IC50 value (MES-SA).
Source text: as §1, §2

Assay [4] has as its system human colorectal cancer HT-29 cells. The assay can be described thus: Inhibitory effect on growth of human cancer cells (in vitro), WST-8. The note with it: Homo sapiens, HT-29, 96 h, 96 hours culture, read-out: IC50 (nM) HT29. The class given is cell-based. A digest of the protocol: (§3)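 Cells seeded at 1000 cells/well in RPMI1640 with 10% FBS, compounds added after overnight culture, then 96 h exposure. Viability by WST-8, about 1 h at 37 °C, 5% CO2, absorbance read at 450 nm.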

Assay [5] concerns human non-small cell lung cancer A549 cells. The assay is described as above. The class given is cell-based. The settings on record: Homo sapiens, A549, 96 h, 96 hours culture. A digest of the protocol: as §3
Assay [6] concerns human colorectal cancer HCT116 cells. The assay is described as above. The settings on record: Homo sapiens, HCT-116, 96 h, 96 hours culture. The class given is cell-based. A digest of the protocol: as §3
The test system of assay [7] is human lung cancer NCI-H460 xenograft tumor. The assay can be described thus: Antitumor effect on growth of human lung cancer NCI-H460 xenograft tumor (in vivo). More on the design: species or system BALB/c nude mice. The note with it: Mus musculus, NCI-H460, iv, 528 h, tail vein, excised tumor weight Day 22, read-out: Inhibition Rate (%). How it is done:
Each compound of the present invention was studied for its in vivo antitumor effect using human lung cancer NCI-H460 cell-transplanted mice. An NCI-H460 cell suspension containing 2×10^6 cells was subcutaneously transplanted in an amount of 0.1 mL/mouse to the left groin areas of 6-week-old male BALB/c nude mice. The mice were further raised for approximately 1 week to 10 days and divided into groups (4 mice per group) having equal estimated tumor volumes at the point in time when the tumor size reached approximately 100 to 200 mm^3 (Day 1). Each administration sample was administered at a dose of 10 mL/kg into the tail vein of the mice. The dose and administration schedule of each compound were as described in Table 3. At Day 22, tumor was excised from each mouse. The tumor growth inhibition rate (IR: Inhibition Rate) was calculated from the weight of the excised tumor according to the expression shown below. The Dunnett's test was used in the significant difference test.
Tumor growth inhibition rate (Inhibition Rate, %)=(1−(Excised tumor weight of the administration group)/(Excised tumor weight of the control group))×100
In general terms: A xenograft is tissue or cells of one species grown in another, often human tumour cells in immunodeficient mice.

For orientation: IC50 means the concentration that gives 50% inhibition.

Description for PV2-7 xenograft tumor: The mice were further raised for approximately 1 week to 10 days and divided into groups (4 or 5 mice per group) having equal estimated tumor volumes at the point in time when the tumor size reached approximately 100 to 200 mm^3 (Day 1). Each administration sample was administered at a dose of 10 mL/kg into the tail vein of the mice. In an administration schedule, each sample was administered once a week, three times in total (Days 1, 8, and 15).

In the case of `CC(=O)O[C@H]1C(=O)[C@@]2(C)[C@H]([C@H](OC(=O)c3ccccc3)[C@]3(O)C[C@H](OC(=O)[C@H](O)[C@@H](NC(=O)c4ccccc4)c4ccccc4)C(C)=C1C3(C)C)[C@]1(OC(C)=O)CO[C@@H]1C[C@@H]2O` [Paclitaxel, paclitaxel, reference compound], the IC50 came to 15.2 nM in assay [1], 3.5 nM in assay [2] and 3700 nM in assay [3]. For the same molecule, the “antitumor effect on PV2-7 cell-transplanted mice” value with PV2-7 xenograft tumor was “hardly effective”. Besides, in assay [3], the Resistance rate worked out at 243.3.
In the case of `CNC(=O)c1[nH]c(-c2nnn(CCO)n2)c(C)c1C(=O)c1cccc(Br)c1` [Compound 142, 3-(3-bromobenzoyl)-5-(2-(2-hydroxyethyl)-2H-tetrazol-5-yl)-N,4-dimethyl-1H-pyrrole-2-carboxamide], the IC50 came out at 176 nM in assay [4]; 257 nM in assay [5]; 194 nM in assay [6]; 238 nM in assay [1]; 374 nM in assay [2]; 656 nM in assay [3]. In assay [7] (140 mg/kg, Days 1, 8, 15), the inhibition in vivo at 140 mg/kg amounted to 73.8%. This molecule registered a Resistance rate in assay [3] of 2.8.
As to `Cc1c(-c2nnn(CCO)n2)[nH]c(C(C)O)c1C(=O)c1cccc(Br)c1` (stereo not drawn) [Compound 123, (3-bromophenyl)(2-(1-hydroxyethyl)-5-(2-(2-hydroxyethyl)-2H-tetrazol-5-yl)-4-methyl-1H-pyrrol-3-yl)methanone], the IC50 in assay [4] stood at 39.5 nM; in assay [5], 326 nM; in assay [6], 46.1 nM; in assay [1], 63.3 nM; in assay [2], 68.8 nM; in assay [3] it was 135 nM. The inhibition in vivo at 50 mg/kg in assay [7] (50 mg/kg, Days 1, 3, 5, 8, 10, 12, 15, 17, 19) came out at 58.2%. For the same molecule, the inhibition in vivo at 100 mg/kg in assay [7] (100 mg/kg, Days 1, 5, 9) came to 56.5%. For the same molecule, the Resistance rate in assay [3] was 2.1.
On to `CO[C@H]1C(=O)[C@]2(C)[C@@H](OC)C[C@H]3OC[C@@]3(OC(C)=O)[C@H]2[C@H](OC(=O)c2ccccc2)[C@]2(O)C[C@H](OC(=O)[C@H](O)[C@@H](NC(=O)OC(C)(C)C)c3ccccc3)C(C)=C1C2(C)C` [Cabazitaxel, cabazitaxel], for which the IC50 in assay [2] came to 1.3 nM.
Regarding `Cc1c(-c2nnn(CCO)n2)[nH]c(CO)c1C(=O)c1cccc(Br)c1` [Compound 121, (3-bromophenyl)(5-(2-(2-hydroxyethyl)-2H-tetrazol-5-yl)-2-(hydroxymethyl)-4-methyl-1H-pyrrol-3-yl)methanone], the IC50 in assay [4] stood at 43.8 nM; in assay [5] it was 122 nM; in assay [6], 43.5 nM; in assay [1] it was 49.8 nM; in assay [2] it was 76.2 nM; in assay [3] it was 88.4 nM. In addition, in assay [7] (60 mg/kg, Days 1, 3, 5, 8, 10, 12, 15, 17, 19), the inhibition in vivo at 60 mg/kg came out at 60.6%. Besides, in assay [7] (120 mg/kg, Days 1, 8, 15), the inhibition in vivo at 120 mg/kg stood at 75.5%. Moreover, in assay [3], the Resistance rate was 1.8.
Take `CC(=O)O[C@@]12CO[C@@H]1C[C@H](O)[C@@]1(C)C(=O)[C@H](O)C3=C(C)[C@@H](OC(=O)[C@H](O)[C@@H](NC(=O)OC(C)(C)C)c4ccccc4)C[C@@](O)([C@@H](OC(=O)c4ccccc4)[C@H]21)C3(C)C` [Docetaxel, docetaxel]: in assay [2], the IC50 came out at 1.5 nM.

These data come from US20140343017A1, “PYRROLE COMPOUND” (Kabushiki Kaisha Yakult Honsha, priority 2012, published 2014).
